From US11001850B2, “Constructs and methods for biosynthesis of cyclopamine” (priority 2014, dated 2021)

Columns and labels:
Type in all cases: biochemical, Veratrum californicum
[1] = system: CYP94N1 (22-hydroxycholesterol 26-hydroxylase/oxidase); experiment: Substrate testing of CYP94N1 (22-hydroxycholesterol 26-hydroxylase/oxidase) co-expressed with CPR in Sf9 cells; parameters: key to Production of a detectable product (substrate testing), CYP94N1: Production of a detectable product is indicated by a (+); conditions: for Hydroxylation of substrate by VC12709 (22-hydroxycholesterol 26-hydroxylase/oxidase), in words: Sf9 cells with CPR, GC-MS
Protocol: (§1) Each cytochrome P450 co-expressed with CPR in S. frugiperda Sf9 cells was subjected to individual enzyme assays with the compounds found in Table 6 to determine functionality. Compounds were prepared to 1 mM stock solutions of 100% DMSO and diluted with H2O.
(§2) Standards were obtained from Sigma Aldrich, Research Plus, and Avanti. For GC-MS analysis, 5 individual assays per substrate were pooled after incubation at 30° C. for 2 hours; one assay produced sufficient product for analysis by LC-MS/MS. Assay conditions were as follows: 80 μl S. frugiperda Sf9 cell suspension (obtained by re-suspension of 50 ml viral infected culture pellet in 3.5 ml of 100 mM tricine pH 7.4/5 mM thioglycolic acid), 60 mM potassium phosphate buffer pH 8, 1.25 mM NADPH, 7.5 μM substrate, and H2O in a total volume of 200 μl. Controls were performed with no enzyme and S. frugiperda Sf9 cells expressing an unrelated cytochrome P450, or CPR-only, for each assay.
Assay for GC-MS: Cytochrome P450 enzyme assay conditions were identical to those stated above using S. frugiperda Sf9 cell suspensions with the following modifications. First, 12 assays each containing 22-hydroxy-26-aminocholesterol 22-oxidase+CPR, 22-hydroxycholesterol 26-hydroxylase/oxidase+CPR, or control cytochrome P450+CPR and each with pure 22(R)-hydroxycholesterol were allowed to incubate overnight at 30° C. Like assays were pooled, extracted 3 times with 2 volumes ethyl acetate, dried under N2, and re-suspended in 180 μl of 25% DMSO. Extracts containing the enzymatic product of the 22-hydroxycholesterol 26-hydroxylase/oxidase+CPR and 22(R)-hydroxycholesterol were divided equally and used as substrate for 22-hydroxy-26-aminocholesterol 22-oxidase+CPR and control cytochrome P450+CPR. Extracts containing the enzymatic product of 22-hydroxy-26-aminocholesterol 22-oxidase+CPR and 22(R)-hydroxycholesterol were divided and used as substrate in 6 assays containing 22-hydroxycholesterol 26-hydroxylase/oxidase+CPR and 6 assays containing control cytochrome P450+CPR. Control P450+CPR assay was run in parallel, treated identically and added to another control P450 assay. Refer to FIG. 1A for an overview of the experiment. Assays were allowed to incubate for 20 min at 30° C. then stopped by addition of 20 μl of 20% TCA with vortexing. Like assays were pooled, extracted, derivatized, and analyzed by GC-MS using the method stated above.

[2] = system: CYP90G1 (22-hydroxy-26-aminocholesterol 22-oxidase); experiment: Substrate testing of CYP90G1 (22-hydroxy-26-aminocholesterol 22-oxidase) co-expressed with CPR in Sf9 cells; parameters: key to Production of a detectable product (substrate testing), CYP90G1: Production of a detectable product is indicated by a (+); conditions: for Oxidation of the 22-hydroxy position of substrate by VC13284 (22-hydroxy-26-aminocholesterol 22-oxidase), in words: Sf9 cells with CPR, GC-MS / LC-MS/MS; for Production of a detectable product (substrate testing), CYP90G1: 7.5 μM substrate, crude Sf9 cell suspension with CPR, 1.25 mM NADPH, 30° C. for 2 hours, GC-MS or LC-MS/MS
Protocol: as §1, §2

[3] = system: CYP90B27 (cholesterol 22-hydroxylase); experiment: Substrate testing of CYP90B27 (cholesterol 22-hydroxylase) co-expressed with CPR in Sf9 cells; parameters: key to Production of a detectable product (substrate testing), CYP90B27: Production of a detectable product is indicated by a (+); conditions: for Production of a detectable product (substrate testing), CYP90B27: 7.5 μM substrate, crude Sf9 cell suspension with CPR, 1.25 mM NADPH, 30° C. for 2 hours, GC-MS or LC-MS/MS; for Hydroxylation of substrate by cholesterol 22-hydroxylase (VC2646), in words: Sf9 cells with CPR, GC-MS
Protocol: Compounds were prepared to 1 mM stock solutions of 100% DMSO and diluted with H2O.
as §2

CC(C)CCC(=O)[C@@H](C)[C@H]1CC[C@H]2[C@@H]3CC=C4C[C@@H](O)CC[C@]4(C)[C@H]3CC[C@]12C [22-keto-cholesterol]
Hydroxylation of substrate by VC12709 (22-hydroxycholesterol 26-hydroxylase/oxidase), in words [1]: unable to hydroxylate

CC(CN)CCC(O)[C@@H](C)[C@H]1CC[C@H]2[C@@H]3CC=C4C[C@@H](O)CC[C@]4(C)[C@H]3CC[C@]12C (stereo partly shown) [22-hydroxy-26-aminocholesterol]
Oxidation of the 22-hydroxy position of substrate by VC13284 (22-hydroxy-26-aminocholesterol 22-oxidase), in words [2]: oxidizes the 22-hydroxy position

CC(C)CC[C@@H](O)[C@@H](C)[C@H]1CC[C@H]2[C@@H]3CC=C4C[C@@H](O)CC[C@]4(C)[C@H]3CC[C@]12C [22(R)-hydroxycholesterol]
Production of a detectable product (substrate testing), CYP90B27 [3]: + | Production of a detectable product (substrate testing), CYP90G1 [2]: + | Oxidation of the 22-hydroxy position of substrate by VC13284 (22-hydroxy-26-aminocholesterol 22-oxidase), in words [2]: oxidizes the 22-hydroxy position | Production of a detectable product (substrate testing), CYP94N1 ([1]; 7.5 μM substrate, crude Sf9 cell suspension with CPR, 1.25 mM NADPH, 30° C. for 2 hours, GC-MS or LC-MS/MS): + | Hydroxylation of substrate by VC12709 (22-hydroxycholesterol 26-hydroxylase/oxidase), in words [1]: found to hydroxylate

CC(C)CCC[C@@H](C)[C@H]1CC[C@H]2[C@@H]3CC=C4C[C@@H](O)CC[C@]4(C)[C@H]3CC[C@]12C [cholesterol]
Production of a detectable product (substrate testing), CYP90B27 [3]: + | Hydroxylation of substrate by cholesterol 22-hydroxylase (VC2646), in words [3]: added a hydroxyl group to the 22-position | Hydroxylation of substrate by VC12709 (22-hydroxycholesterol 26-hydroxylase/oxidase), in words [1]: not detected

CC(C)CCC[C@@H](C)[C@H]1CC[C@H]2[C@@H]3[C@@H](O)C=C4C[C@@H](O)CC[C@]4(C)[C@H]3CC[C@]12C [7β-hydroxycholesterol]
Production of a detectable product (substrate testing), CYP90B27 [3]: + | Hydroxylation of substrate by cholesterol 22-hydroxylase (VC2646), in words [3]: hydroxylated

C[C@@H](CO)CCC[C@@H](C)[C@H]1CC[C@H]2[C@@H]3CC=C4C[C@@H](O)CC[C@]4(C)[C@H]3CC[C@]12C [26-hydroxycholesterol]
Production of a detectable product (substrate testing), CYP90B27 [3]: + | Hydroxylation of substrate by cholesterol 22-hydroxylase (VC2646), in words [3]: hydroxylated

CC(CO)CCC(O)[C@@H](C)[C@H]1CC[C@H]2[C@@H]3CC=C4C[C@@H](O)CC[C@]4(C)[C@H]3CC[C@]12C (stereo partly shown) [22,26-dihydroxycholesterol]
Production of a detectable product (substrate testing), CYP90G1 [2]: + | Oxidation of the 22-hydroxy position of substrate by VC13284 (22-hydroxy-26-aminocholesterol 22-oxidase), in words [2]: oxidizes the 22-hydroxy position
